Source: ChEMBL document CHEMBL3879883, “GPR 17 agonists and screening assay” (2013)
pEC50: −log10 of the molar value. One block for each compound: values may come before it. Calls of active or inactive are those of the source. The calls are words filed in the database; no cut-off is given here.

Columns and labels:
[1] = Effect on Ca2+ mobilization in GPR17 deficient human 1321N1 cells at 3 uM after 20 mins by oregon green 488 BAPTA-1/AM dye-based fluorescence assay; format: functional
[2] = molecular target: T1, Uracil nucleotide/cysteinyl leukotriene receptor (Homo sapiens, UniProt Q13304); test: Agonist activity at recombinant human GPR17 short isoform transfected in CHO cells assessed as mobilization of intracellular Ca2+ at 3 uM after 20 mins by oregon green 488 BAPTA-1/AM dye-based fluorescence assay relative to control; format: functional, cell-based
T1 sequence (Q13304 whole entry, canonical isoform): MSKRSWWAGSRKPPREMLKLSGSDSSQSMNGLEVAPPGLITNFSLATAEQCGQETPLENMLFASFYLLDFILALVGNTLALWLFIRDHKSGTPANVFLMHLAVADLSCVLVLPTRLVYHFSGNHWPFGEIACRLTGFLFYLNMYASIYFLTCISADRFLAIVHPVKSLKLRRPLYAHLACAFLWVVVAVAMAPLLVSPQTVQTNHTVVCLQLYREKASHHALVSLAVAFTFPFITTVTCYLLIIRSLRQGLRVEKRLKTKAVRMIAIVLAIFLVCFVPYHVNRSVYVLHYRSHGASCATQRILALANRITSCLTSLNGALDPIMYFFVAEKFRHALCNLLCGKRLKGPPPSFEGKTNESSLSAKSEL

[3] = molecular target: T1, Uracil nucleotide/cysteinyl leukotriene receptor; test: Agonist activity at recombinant human GPR17 short isoform transfected in human 1321N1 cells assessed as mobilization of intracellular Ca2+ at 3 uM after 20 mins by oregon green 488 BAPTA-1/AM dye-based fluorescence assay relative to control; format: functional, cell-based
[4] = system: CHO-K1; test: Effect on Ca2+ mobilization in GPR17 deficient CHOK1 cells at 3 uM after 20 mins by oregon green 488 BAPTA-1/AM dye-based fluorescence assay; format: functional, Cricetulus griseus
[5] = molecular target: T1, Uracil nucleotide/cysteinyl leukotriene receptor; test: Agonist activity at recombinant human GPR17 short isoform transfected in CHO cells assessed as mobilization of intracellular Ca2+ after 20 mins by oregon green 488 BAPTA-1/AM dye-based fluorescence assay; format: functional, cell-based
[6] = molecular target: T1, Uracil nucleotide/cysteinyl leukotriene receptor; test: Agonist activity at recombinant human GPR17 short isoform transfected in CHO cells assessed as mobilization of intracellular Ca2+ at 1 uM after 20 mins by oregon green 488 BAPTA-1/AM dye-based fluorescence assay relative to control; format: functional, cell-based
[7] = molecular target: T1, Uracil nucleotide/cysteinyl leukotriene receptor; test: Agonist activity at recombinant human GPR17 short isoform transfected in human 1321N1 cells assessed as mobilization of intracellular Ca2+ at 1 uM after 20 mins by oregon green 488 BAPTA-1/AM dye-based fluorescence assay relative to control; format: functional, cell-based
[8] = system: CHO-K1; test: Effect on Ca2+ mobilization in GPR17 deficient CHOK1 cells at 1 uM after 20 mins by oregon green 488 BAPTA-1/AM dye-based fluorescence assay; format: functional, Cricetulus griseus
[9] = Effect on Ca2+ mobilization in GPR17 deficient human 1321N1 cells at 1 uM after 20 mins by oregon green 488 BAPTA-1/AM dye-based fluorescence assay; format: functional
[10] = molecular target: T1, Uracil nucleotide/cysteinyl leukotriene receptor; test: Agonist activity at recombinant human GPR17 short isoform transfected in human 1321N1 cells assessed as mobilization of intracellular Ca2+ after 20 mins by oregon green 488 BAPTA-1/AM dye-based fluorescence assay; format: functional, cell-based
[11] = Effect on Ca2+ mobilization in GPR17 deficient human 1321N1 cells at 0.1 uM after 20 mins by oregon green 488 BAPTA-1/AM dye-based fluorescence assay; format: functional
[12] = molecular target: T1, Uracil nucleotide/cysteinyl leukotriene receptor; test: Agonist activity at recombinant human GPR17 short isoform transfected in CHO cells assessed as mobilization of intracellular Ca2+ at 0.3 uM after 20 mins by oregon green 488 BAPTA-1/AM dye-based fluorescence assay relative to control; format: functional, cell-based
[13] = system: CHO-K1; test: Effect on Ca2+ mobilization in GPR17 deficient CHOK1 cells at 0.1 uM after 20 mins by oregon green 488 BAPTA-1/AM dye-based fluorescence assay; format: functional, Cricetulus griseus
[14] = molecular target: T1, Uracil nucleotide/cysteinyl leukotriene receptor; test: Antagonist activity at recombinant human GPR17 short isoform transfected in CHO cells assessed as inhibition of RA-II-150-mediated intracellular Ca2+ mobilization preincubated for 5 to 30 mins followed by RA-II-150 addition measured after 20 mins by oregon green 488 BAPTA-1/AM dye-based fluorescence assay; format: functional, cell-based
[15] = molecular target: T1, Uracil nucleotide/cysteinyl leukotriene receptor; test: Agonist activity at recombinant human GPR17 short isoform transfected in CHO cells assessed as inhibition of forskolin-stimulated intracellular cAMP accumulation after 30 mins by FRET assay; format: functional, cell-based
[16] = system: CHO; test: Inhibition of forskolin-stimulated intracellular cAMP accumulation in CHO cells after 30 mins by FRET assay; format: functional, cell-based; settings: Cricetulus griseus
[17] = system: CHO-K1; test: Effect on Ca2+ mobilization in GPR17 deficient CHOK1 cells at 0.3 uM after 20 mins by oregon green 488 BAPTA-1/AM dye-based fluorescence assay; format: functional, Cricetulus griseus
[18] = Effect on Ca2+ mobilization in GPR17 deficient human 1321N1 cells at 0.3 uM after 20 mins by oregon green 488 BAPTA-1/AM dye-based fluorescence assay; format: functional
[19] = molecular target: T1, Uracil nucleotide/cysteinyl leukotriene receptor; test: Agonist activity at recombinant human GPR17 short isoform transfected in human 1321N1 cells assessed as mobilization of intracellular Ca2+ at 10 uM after 20 mins by oregon green 488 BAPTA-1/AM dye-based fluorescence assay relative to control; format: functional, cell-based

Structure (SMILES): O=C(O)CCc1c(C(=O)O)[nH]c2cc(F)cc(F)c12
Activity [1]: 2%
Activity [2]: 97%
Activity [3]: 77%
Activity [4]: 1%

Structure (SMILES): O=C(O)CCc1c(C(=O)O)n(CCC(=O)O)c2cc(Cl)cc(Cl)c12
Activity [6]: 85%
Activity [7]: 80%
Activity [8]: 1%
Activity [9]: 1%
pEC50 [5]: 6.73
pEC50 [10]: 5.28

Structure (SMILES): O=C(O)CCc1c(C(=O)O)[nH]c2cc(-c3ccccc3)cc(-c3ccccc3)c12
pEC50 [5]: 5.52

Structure (SMILES): O=C(Nc1cccc2c(=O)cc(-c3nnn[nH]3)oc12)c1ccc(OCCCCc2ccccc2)cc1
inhibition [14]: Dose-dependent effect

Structure (SMILES): NCC(=O)CCC(=O)O
inhibition [15]: Active
inhibition [16]: Active

Structure (SMILES): O=C(O)CCc1c(C(=O)O)[nH]c2cc(Br)cc(Br)c12
Activity [12]: 89%
Activity [19]: 106%
Activity [17]: 0%
Activity [18]: 0%

Structure (SMILES): O=C(O)CCc1c(C(=O)O)[nH]c2cc(I)cc(I)c12
pEC50 [5]: 5.32

Structure (SMILES): Cc1cc(C)c2c(CCC(=O)O)c(C(=O)O)[nH]c2c1
Activity [6]: 68%
Activity [7]: 76%
Activity [8]: 1%
Activity [9]: 1%

More lines, main results first:

pEC50 [5]: 6.14
Structure (SMILES): O=C(O)CCc1c(C(=O)O)[nH]c2cc(-c3ccccc3)ccc12

Activity [12]: 100%
Structure (SMILES): O=C(O)CCc1c(C(=O)O)[nH]c2cc(Cl)cc(Cl)c12
Activity [11]: 0%
Activity [13]: 0%

pEC50 [5]: 6.15
Structure (SMILES): O=C(O)CCc1c(C(=O)O)[nH]c2cc(I)ccc12

Activity [6]: 94%
Activity [7]: 84%
Structure (SMILES): O=C(O)CCc1c(C(=O)O)[nH]c2cc(Cl)ccc12
Activity [17]: 1%
Activity [18]: 4%

pEC50 [5]: 5.50
Structure (SMILES): O=C(O)CCc1c(C(=O)O)[nH]c2cc(Br)ccc12
